# System: Bovine cardiac myofibrils
# Assay: In vitro model of dose-dependent myofibril ATPase modulation (AC1.4, pyruvate kinase/lactate dehydrogenase-coupled ATPase assay at pCa25)
# Assay type: biochemical
# Conditions: concentration at which ATPase activity was 1.4-fold higher than the bottom of the dose curve, mean of a minimum of two independent tests
# Outline: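 Bovine cardiac myofibrils, detergent-treated; 0.25-1.0 mg/ml. Buffer: K-PIPES 12 mM, MgCl2 2 mM, DTT 1 mM, BSA 0.1 mg/ml, pH 6.80, 22° C; Ca2+ set by EGTA/CaCl2. ATP 1 mM, NADH/PEP-coupled, A340. 4-parameter fit; n≥2.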
row,AC1.4 [µM],SMILES
1,0.411,"CS(=O)(=O)c1cccc(C(=O)N2C[C@@H](F)C[C@@H]2C(=O)N[C@@H](c2cc(F)c(Cl)cc2F)C2CC2)c1 [Example 201, (4S)-N-((R)-(4-chloro-2,5-difluorophenyl)(cyclopropyl)methyl)-4-fluoro-1-(3-(methylsulfonyl)benzoyl)-D-prolinamrde]"
2,0.4825,"CS(=O)(=O)c1ccnc(C(=O)N2CCC[C@@H]2C(=O)N[C@@H](c2cc(F)c(Cl)cc2F)C2CC2)c1 [Example 222, N-((R)-(4-chloro-2,5-difluorophenyl)(cyclopropyl)methyl)-1-((4-(methylsulfonyl)-2-pyridinyl)carbonyl)-D-prolinamide]"
3,0.3372,"CC(C)(C)Nc1ccc(S(C)(=O)=O)cc1C(=O)N1CCC[C@@H]1C(=O)N[C@@H](c1ccc(C(F)(F)F)cc1F)C1CC1 [Example 186, N-((R)-cyclopropyl(2-fluoro-4-(trifluoromethyl)phenyl)methyl)-1-(2-((2-methyl-2-propanyl)amino)-5-(methylsulfonyl)benzoyl)-D-prolinamide]"
4,1.474,"CS(=O)(=O)c1cncc(C(=O)N2C[C@@H](F)C[C@@H]2C(=O)N[C@@H](c2cc(F)c(C(F)(F)F)cc2F)C2CC2)c1 [Example 430, (4S)-N-((R)-cyclopropyl(2,5-difluoro-4-(trifluoromethyl)phenyl)methyl)-4-fluoro-1-((5-(methylsulfonyl)-3-pyridinyl)carbonyl)-D-prolinamide]"
5,0.6092,"CS(=O)(=O)c1cccc(C(=O)N2CCCC[C@@H]2C(=O)N[C@@H](c2ccc(C(F)(F)F)cc2F)C2CC2)c1 [Example 253, (2R)-N-((R)-cyclopropyl(2-fluoro-4-(trifluoromethyl)phenyl)methyl)-1-(3-(methylsulfonyl)benzoyl)-2-piperidinecarboxamide]"
6,0.01475,"N#CC1CN(S(=O)(=O)N2CCC[C@H](C(=O)N3CCC[C@@H]3C(=O)N[C@@H](c3ccc(Cl)cc3F)C3CC3)C2)C1 [Example 2, N-((R)-(4-chloro-2-fluorophenyl)(cyclopropyl)methyl)-1-(((3S)-1-((3-cyano-1-azetidinyl)sulfonyl)-3-piperidinyl)carbonyl)-D-prolinamide]"
7,4.951,"CS(=O)(=O)c1cncc(C(=O)N2CCC[C@@H]2C(=O)NC(c2ccc(C(F)(F)F)cc2F)C2CC2)c1 (stereo partly drawn) [Example 809, (2R)-N-(cyclopropyl(2-fluoro-4-(trifluoromethyl)phenyl)methyl)-1-(5-(methylsulfonyl)nicotinoyl)pyrrolidine-2-carboxamide]"
8,0.6372,"CC[C@@H](NC(=O)[C@H]1CCCN1C(=O)c1cccc(S(=O)(=O)N(C)C)c1)c1ccc(Cl)c(F)c1 [Example 259, N-((1R)-1-(4-chloro-3-fluorophenyl)propyl)-1-(3-(dimethylsulfamoyl)benzoyl)-D-prolinamide]"
9,8.175,"CC[C@@H](NC(=O)[C@H]1CCCN1C(=O)c1cccc(S(C)(=O)=O)c1)c1ccc(Cl)c(F)c1 [Example 772, N-((1R)-1-(4-chloro-3-fluorophenyl)propyl)-1-(3-(methylsulfonyl)benzoyl)-D-prolinamide]"

# More lines, now with the values behind:
row,SMILES,AC1.4 [µM]
1,"N#CC1CN(S(=O)(=O)N2CCN[C@H](C(=O)N3CCC[C@@H]3C(=O)NCc3ccc(Cl)c(F)c3)C2)C1 [Example 174, N-(4-chloro-3-fluorobenzyl)-1-(((2S)-4-((3-cyano-1-azetidinyl)sulfonyl)-2-piperazinyl)carbonyl)-D-prolinamide]",0.3052
2,"COC(=O)C1CC(S(=O)(=O)N2CCC[C@H](C(=O)N3CCC[C@@H]3C(=O)NCc3ccc(C(F)(F)F)cc3)C2)C1 (stereo partly drawn) [Example 518, methyl3-(((S)-3-((R)-2-((4-(trifluoromethyl)benzyl)carbamoyl)pyrrolidine-1-carbonyl)piperidin-1-yl)sulfonyl)cyclobutanecarboxylate]",2.457
3,"N#CC1CN(S(=O)(=O)N2CCC[C@H](C(=O)N3CCC[C@@H]3C(=O)NCc3c(F)cc(F)c(F)c3F)C2)C1 [Example 423, 1-(((3S)-1-((3-cyano-1-azetidinyl)sulfonyl)-3-piperidinyl)carbonyl)-N-(2,3,4,6-tetrafluorobenzyl)-D-prolinamide]",1.5735
4,"O=C(NCc1ccc(C(F)(F)F)cc1)[C@H]1CCCN1C(=O)[C@H]1CCCN(S(=O)(=O)N2CCC2c2cccc(Br)c2)C1 (stereo partly drawn) [Example 180, 1-(((3S)-1-((-2-(3-bromophenyl)-1-azetidinyl)sulfonyl)-3-piperidinyl)carbonyl)-N-(4-(trifluoromethyl)benzyl)-D-prolinamide]",0.3256
5,"NC(=O)[C@H]1C[C@@H](S(=O)(=O)N2CCC[C@H](C(=O)N3CCC[C@@H]3C(=O)NCc3ccc(C(F)(F)F)cc3)C2)C1 [Example 425, 1-(((3S)-1-((cis-3-carbamoylcyclobutyl)sulfonyl)-3-piperidinyl)carbonyl)-N-(4-(trifluoromethyl)benzyl)-D-prolinamide]",1.5805
6,"N#C[C@@H]1CCN(S(=O)(=O)N2CCC[C@H](C(=O)N3CCC[C@@H]3C(=O)NCc3ccc(C(F)(F)F)cc3)C2)C1 [Example 319, 1-(((3S)-1-(((3R)-3-cyano-1-pyrrolidinyl)sulfonyl)-3-piperidinyl)carbonyl)-N-(4-(trifluoromethyl)benzyl)-D-prolinamide]",0.8692
7,"C[C@H](C(=O)NCc1ccc(Cl)cc1)N(C)C(=O)c1cccc(S(=O)(=O)N2CC(C#N)C2)c1 [Example 337, N-((1R)-2-((4-chlorobenzyl)amino)-1-methyl-2-oxoethyl)-3-((3-cyano-1-azetidinyl)sulfonyl)-N-methylbenzamide]",0.9477
8,"Cc1ccc(C)c(CNC(=O)[C@H]2CCCN2C(=O)[C@H]2CCCN(S(=O)(=O)N3CC(C#N)C3)C2)c1 [Example 765, 1-(((3S)-1-((3-cyano-1-azetidinyl)sulfonyl)-3-piperidinyl)carbonyl)-N-(2,5-dimethylbenzyl)-D-prolinamide]",7.9325
9,"Cc1cc(F)cc(CNC(=O)[C@H]2CCCN2C(=O)[C@H]2CCCN(S(=O)(=O)N3CC(C#N)C3)C2)c1 [Example 498, 1-(((3S)-1-((3-cyano-1-azetidinyl)sulfonyl)-3-piperidinyl)carbonyl)-N-(3-fluoro-5-methylbenzyl)-D-prolinamide]",2.335
10,"N#CC1CN(S(=O)(=O)N2CCC[C@H](C(=O)N3[C@@H](C(=O)NCc4ccc(C(F)(F)F)cn4)C[C@H]4C[C@H]43)C2)C1 [Example 348, (1R,3R,5R)-2-(((3S)-1-((3-cyano-1-azetidinyl)sulfonyl)-3-piperidinyl)carbonyl)-N-((5-(trifluoromethyl)-2-pyridinyl)methyl)-2-azabicyclo[3.1.0]hexane-3-carboxamide]",1.0273
11,"N#CC1CN(S(=O)(=O)N2CCC[C@@H](C(=O)N3CCC[C@@H]3C(=O)NCc3ccc(C(F)(F)F)cc3F)C2)C1 [Example 539, 1-(((3R)-1-((3-cyano-1-azetidinyl)sulfonyl)-3-piperidinyl)carbonyl)-N-(2-fluoro-4-(trifluoromethyl)benzyl)-D-prolinamide]",2.753
12,"N#CC1CN(S(=O)(=O)N2CCC[C@H](C(=O)N3CCC[C@@H]3C(=O)NCc3ccccc3C(F)(F)F)C2)C1 [Example 746, 1-(((3S)-1-((3-cyano-1-azetidinyl)sulfonyl)-3-piperidinyl)carbonyl)-N-(2-(trifluoromethyl)benzyl)-D-prolinamide]",7.268
